Data taken from patent US20120219615A1, “Therapeutic Use of a TLR Agonist and Combination Therapy” (The Trustees of the University of Pennsylvania, priority 2010, published 2012).

Tested on: G-CSF, MCP-1, MIP-1β, TNFα
Test: Phase I clinical study: pharmacodynamic response, plasma immune mediators (MAP)
Format: in vivo
Conditions: human, s.c., first dose
Method: Study Procedures: VTX-2337 was administered weekly via subcutaneous injection on Days 1, 8, and 15 of a 28-day dosing cycle for two cycles. Using a modified Fibonacci dose-escalation scheme, successive cohorts received doses ranging from 0.1 mg/m^2 to 3.9 mg/m^2 of VTX-2337. Plasma samples were collected for pharmacokinetic analysis after the first dose of the first treatment cycle and for pharmacodynamic analyses after the first dose of the first and second treatment cycles.
To evaluate the pharmacodynamic (PD) response to VTX-2337, blood was collected at 0, 4, 8, 24 hours after subcutaneous administration of the first dose of the first cycle of VTX-2337. Plasma levels of immune mediators were quantified using the human multiple analyte panel (MAP), version 1.8 (Rules Based Medicine). […] Levels of mediators in plasma collected from 9 healthy volunteers are shown for comparison to the oncology population. […]

With `CCCN(CCC)C(=O)C1=Cc2ccc(-c3ccc(C(=O)N4CCCC4)cc3)cc2N=C(N)C1` [VTX-2337, 2-amino-N,N-dipropyl-8-(4-(pyrrolidine-1-carbonyl)phenyl)-3H-benzo[b]azepine-4-carboxamide] the G-CSF plasma level (Cohort 1 (0.1 mg/m^2), 0 Hr) was 9.7 ± 1.9 pg/mL, the MCP-1 plasma level (Cohort 1 (0.1 mg/m^2), 0 Hr) was 247 ± 62.7 pg/mL and the MIP-1β plasma level (Cohort 1 (0.1 mg/m^2), 0 Hr) was 201 ± 73.8 pg/mL. The TNFα plasma level (Cohort 1 (0.1 mg/m^2), 0 Hr) was 11.4 ± 4.4 pg/mL, the G-CSF plasma level (Cohort 1 (0.1 mg/m^2), 4 Hr) was 8.6 ± 1.6 pg/mL and the MCP-1 plasma level (Cohort 1 (0.1 mg/m^2), 4 Hr) was 223 ± 58.8 pg/mL. The MIP-1β plasma level (Cohort 1 (0.1 mg/m^2), 4 Hr) was 196 ± 71.9 pg/mL, the TNFα plasma level (Cohort 1 (0.1 mg/m^2), 4 Hr) was 10.5 ± 2.6 pg/mL and the G-CSF plasma level (Cohort 1 (0.1 mg/m^2), 8 Hr) was 11.9 ± 4.4 pg/mL. The MCP-1 plasma level (Cohort 1 (0.1 mg/m^2), 8 Hr) was 280 ± 97.0 pg/mL, the MIP-1β plasma level (Cohort 1 (0.1 mg/m^2), 8 Hr) was 204 ± 74.0 pg/mL and the TNFα plasma level (Cohort 1 (0.1 mg/m^2), 8 Hr) was 10.3 ± 4.0 pg/mL. The G-CSF plasma level (Cohort 1 (0.1 mg/m^2), 24 Hr) was 9.2 ± 2.5 pg/mL, the MCP-1 plasma level (Cohort 1 (0.1 mg/m^2), 24 Hr) was 250 ± 85.0 pg/mL and the MIP-1β plasma level (Cohort 1 (0.1 mg/m^2), 24 Hr) was 207 ± 73.8 pg/mL. It also gave a TNFα plasma level (Cohort 1 (0.1 mg/m^2), 24 Hr) of 10.2 ± 3.6 pg/mL, a G-CSF plasma level (Cohort 2 (0.2 mg/m^2), 0 Hr) of 7.8 ± 3.2 pg/mL and an MCP-1 plasma level (Cohort 2 (0.2 mg/m^2), 0 Hr) of 245 ± 167 pg/mL. It also gave an MIP-1β plasma level (Cohort 2 (0.2 mg/m^2), 0 Hr) of 230 ± 84.0 pg/mL, a TNFα plasma level (Cohort 2 (0.2 mg/m^2), 0 Hr) of 9.7 ± 5.7 pg/mL and a G-CSF plasma level (Cohort 2 (0.2 mg/m^2), 4 Hr) of 11.5 ± 7.8 pg/mL. For the same compound, the MCP-1 plasma level (Cohort 2 (0.2 mg/m^2), 4 Hr) was 235 ± 84.6 pg/mL, the MIP-1β plasma level (Cohort 2 (0.2 mg/m^2), 4 Hr) was 239 ± 74.0 pg/mL and the TNFα plasma level (Cohort 2 (0.2 mg/m^2), 4 Hr) was 10.8 ± 5.0 pg/mL. For the same compound, the G-CSF plasma level (Cohort 2 (0.2 mg/m^2), 8 Hr) was 19.0 ± 16.5 pg/mL, the MCP-1 plasma level (Cohort 2 (0.2 mg/m^2), 8 Hr) was 298 ± 100 pg/mL and the MIP-1β plasma level (Cohort 2 (0.2 mg/m^2), 8 Hr) was 247 ± 84.7 pg/mL. For the same compound, the TNFα plasma level (Cohort 2 (0.2 mg/m^2), 8 Hr) was 10.5 ± 6.0 pg/mL, the G-CSF plasma level (Cohort 2 (0.2 mg/m^2), 24 Hr) was 15.4 ± 9.0 pg/mL and the MCP-1 plasma level (Cohort 2 (0.2 mg/m^2), 24 Hr) was 301 ± 159 pg/mL. The MIP-1β plasma level (Cohort 2 (0.2 mg/m^2), 24 Hr) was 280 ± 115 pg/mL, the TNFα plasma level (Cohort 2 (0.2 mg/m^2), 24 Hr) was 12.4 ± 6.1 pg/mL and the G-CSF plasma level (Cohort 3 (0.4 mg/m^2), 0 Hr) was 12.7 ± 6.0 pg/mL. It also gave an MCP-1 plasma level (Cohort 3 (0.4 mg/m^2), 0 Hr) of 129 ± 30.0 pg/mL, an MIP-1β plasma level (Cohort 3 (0.4 mg/m^2), 0 Hr) of 172 ± 59.0 pg/mL and a TNFα plasma level (Cohort 3 (0.4 mg/m^2), 0 Hr) of 9.0 ± 4.9 pg/mL. For the same compound, the G-CSF plasma level (Cohort 3 (0.4 mg/m^2), 4 Hr) was 9.5 ± 0.9 pg/mL, the MCP-1 plasma level (Cohort 3 (0.4 mg/m^2), 4 Hr) was 137 ± 30.7 pg/mL and the MIP-1β plasma level (Cohort 3 (0.4 mg/m^2), 4 Hr) was 215 ± 65.6 pg/mL. The TNFα plasma level (Cohort 3 (0.4 mg/m^2), 4 Hr) was 10.8 ± 3.3 pg/mL, the G-CSF plasma level (Cohort 3 (0.4 mg/m^2), 8 Hr) was 63.8 ± 60.1 pg/mL and the MCP-1 plasma level (Cohort 3 (0.4 mg/m^2), 8 Hr) was 251 ± 87.9 pg/mL. The MIP-1β plasma level (Cohort 3 (0.4 mg/m^2), 8 Hr) was 213 ± 88.8 pg/mL, the TNFα plasma level (Cohort 3 (0.4 mg/m^2), 8 Hr) was 9.6 ± 3.1 pg/mL and the G-CSF plasma level (Cohort 3 (0.4 mg/m^2), 24 Hr) was 15.8 ± 3.5 pg/mL. The MCP-1 plasma level (Cohort 3 (0.4 mg/m^2), 24 Hr) was 99.5 ± 6.9 pg/mL, the MIP-1β plasma level (Cohort 3 (0.4 mg/m^2), 24 Hr) was 173 ± 67.4 pg/mL and the TNFα plasma level (Cohort 3 (0.4 mg/m^2), 24 Hr) was 10.0 ± 2.9 pg/mL. For the same compound, the G-CSF plasma level (Cohort 4 (0.8 mg/m^2), 0 Hr) was 13.2 ± 8.9 pg/mL, the MCP-1 plasma level (Cohort 4 (0.8 mg/m^2), 0 Hr) was 260 ± 150 pg/mL and the MIP-1β plasma level (Cohort 4 (0.8 mg/m^2), 0 Hr) was 165 ± 63.9 pg/mL. It also gave a TNFα plasma level (Cohort 4 (0.8 mg/m^2), 0 Hr) of 16.7 ± 12.6 pg/mL, a G-CSF plasma level (Cohort 4 (0.8 mg/m^2), 4 Hr) of 49.8 ± 80.3 pg/mL and an MCP-1 plasma level (Cohort 4 (0.8 mg/m^2), 4 Hr) of 1037 ± 1920 pg/mL. The MIP-1β plasma level (Cohort 4 (0.8 mg/m^2), 4 Hr) was 450 ± 641 pg/mL, the TNFα plasma level (Cohort 4 (0.8 mg/m^2), 4 Hr) was 22.0 ± 14.6 pg/mL and the G-CSF plasma level (Cohort 4 (0.8 mg/m^2), 8 Hr) was 137 ± 124 pg/mL. The MCP-1 plasma level (Cohort 4 (0.8 mg/m^2), 8 Hr) was 673 ± 386 pg/mL, the MIP-1β plasma level (Cohort 4 (0.8 mg/m^2), 8 Hr) was 287 ± 177 pg/mL and the TNFα plasma level (Cohort 4 (0.8 mg/m^2), 8 Hr) was 19.0 ± 10.6 pg/mL. The G-CSF plasma level (Cohort 4 (0.8 mg/m^2), 24 Hr) was 35.7 ± 14.7 pg/mL, the MCP-1 plasma level (Cohort 4 (0.8 mg/m^2), 24 Hr) was 267 ± 104 pg/mL and the MIP-1β plasma level (Cohort 4 (0.8 mg/m^2), 24 Hr) was 183 ± 55.9 pg/mL. The TNFα plasma level (Cohort 4 (0.8 mg/m^2), 24 Hr) was 17.5 ± 8.7 pg/mL.
